Results taken from ChEMBL document CHEMBL1201862, “PubChem BioAssay data set” (2004).
Calls of active or inactive are those of the source.

Legend:
[1] = target: Beta-galactosidase (Escherichia coli, UniProt Q8VNN2); assay: PubChem AID 485352; assay type: functional
[2] = target: T1, Type-1 angiotensin II receptor (Homo sapiens, UniProt P30556); assay: AT1 receptor antagonists, dose response, selectivity assay for APJ receptor antagonist project, cell-based, uHTS hits (AID 463214); assay type: functional;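 further: antagonist potency against angiotensin II stimulated AT1 response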
T1 sequence (P30556 whole entry): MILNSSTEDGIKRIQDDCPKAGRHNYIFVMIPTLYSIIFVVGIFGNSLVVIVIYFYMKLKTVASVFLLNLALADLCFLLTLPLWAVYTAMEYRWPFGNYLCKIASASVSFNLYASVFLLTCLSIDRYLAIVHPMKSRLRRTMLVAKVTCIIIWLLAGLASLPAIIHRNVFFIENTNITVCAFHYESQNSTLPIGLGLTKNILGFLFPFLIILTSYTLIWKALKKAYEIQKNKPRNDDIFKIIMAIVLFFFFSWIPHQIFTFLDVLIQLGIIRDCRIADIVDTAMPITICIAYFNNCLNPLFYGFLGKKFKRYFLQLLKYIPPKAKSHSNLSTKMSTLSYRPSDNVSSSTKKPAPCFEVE

[3] = target: T2, Cysteine protease ATG4B (Homo sapiens, UniProt Q9Y4P1); assay type: functional;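 further: Fluorescence-based dose-response confirmation assay measuring inhibition of ATG4B activity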
T2 sequence (Q9Y4P1 whole entry): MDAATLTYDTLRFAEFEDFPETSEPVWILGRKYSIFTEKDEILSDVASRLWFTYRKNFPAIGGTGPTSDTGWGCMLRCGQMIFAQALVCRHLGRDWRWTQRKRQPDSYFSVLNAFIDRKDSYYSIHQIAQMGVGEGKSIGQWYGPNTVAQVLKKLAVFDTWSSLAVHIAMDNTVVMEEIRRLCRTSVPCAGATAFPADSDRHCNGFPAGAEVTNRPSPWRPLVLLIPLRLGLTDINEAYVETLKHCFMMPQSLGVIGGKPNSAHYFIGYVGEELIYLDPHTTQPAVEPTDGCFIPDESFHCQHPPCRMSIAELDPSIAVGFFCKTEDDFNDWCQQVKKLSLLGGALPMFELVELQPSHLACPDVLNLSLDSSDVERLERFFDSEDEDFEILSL

[4] = target: Phospholipase A2 (Homo sapiens, UniProt P04054); assay type: functional;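 further: confirmatory dose-response counterscreen on phospholipase A2, testing hits that came from an ultra-high-throughput screen for ATG4B inhibitors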
Sequence of Phospholipase A2 (P04054 whole entry): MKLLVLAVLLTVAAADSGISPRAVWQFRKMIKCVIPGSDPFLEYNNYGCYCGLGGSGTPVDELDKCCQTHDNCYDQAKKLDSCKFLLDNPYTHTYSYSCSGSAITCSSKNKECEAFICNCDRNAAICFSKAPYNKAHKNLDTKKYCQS

[5] = Luminescence Cell-Based Dose Retest to Confirm Inhibitors of Cancer Stem Cells. [Related pubchem assays (depositor defined):AID2717, AID2721]; assay type: functional; settings: Homo sapiens
[6] = cytotoxicity in HMLE control line with eGFP shRNA, dose response, counter-screen for HMLE_sh_ECad selective toxicity project, cell-based, HMLE_sh_eGFP, luminescence (AID 463074); assay type: functional, Homo sapiens;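 further: HMLE human mammary epithelial cells expressing control shRNA against eGFP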
[7] = target: T3, Calpain-2 catalytic subunit (Sus scrofa, UniProt P43367); assay: pig calpain II inhibitor potency, dose response, biochemical, fluorogenic peptide substrate (AID 1420); assay type: functional
T3 sequence (P43367 whole entry): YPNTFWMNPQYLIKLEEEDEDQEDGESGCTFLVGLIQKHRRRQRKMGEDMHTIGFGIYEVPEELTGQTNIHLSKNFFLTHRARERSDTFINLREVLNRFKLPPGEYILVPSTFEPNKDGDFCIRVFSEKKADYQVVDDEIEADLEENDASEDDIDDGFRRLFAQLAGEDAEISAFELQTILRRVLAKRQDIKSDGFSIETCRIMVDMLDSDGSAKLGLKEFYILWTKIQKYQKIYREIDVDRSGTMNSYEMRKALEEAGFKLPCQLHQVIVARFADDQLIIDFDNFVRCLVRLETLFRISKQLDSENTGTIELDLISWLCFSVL

[8] = tested on: Escherichia coli; assay: microbe, parasite or virus in culture
[9] = target: Dual specificity tyrosine-phosphorylation-regulated kinase 1A (Rattus norvegicus, UniProt Q63470); assay type: biochemical, Homo sapiens
[10] = target: Heat shock protein HSP 90-alpha (Homo sapiens, UniProt P07900); assay type: functional, organism-based
[11] = target: Intestinal-type alkaline phosphatase (Mus musculus, UniProt P24822); assay: PubChem AID 488785; assay type: functional
Sequence of Intestinal-type alkaline phosphatase (Mus musculus, UniProt P24822) (P24822 whole entry): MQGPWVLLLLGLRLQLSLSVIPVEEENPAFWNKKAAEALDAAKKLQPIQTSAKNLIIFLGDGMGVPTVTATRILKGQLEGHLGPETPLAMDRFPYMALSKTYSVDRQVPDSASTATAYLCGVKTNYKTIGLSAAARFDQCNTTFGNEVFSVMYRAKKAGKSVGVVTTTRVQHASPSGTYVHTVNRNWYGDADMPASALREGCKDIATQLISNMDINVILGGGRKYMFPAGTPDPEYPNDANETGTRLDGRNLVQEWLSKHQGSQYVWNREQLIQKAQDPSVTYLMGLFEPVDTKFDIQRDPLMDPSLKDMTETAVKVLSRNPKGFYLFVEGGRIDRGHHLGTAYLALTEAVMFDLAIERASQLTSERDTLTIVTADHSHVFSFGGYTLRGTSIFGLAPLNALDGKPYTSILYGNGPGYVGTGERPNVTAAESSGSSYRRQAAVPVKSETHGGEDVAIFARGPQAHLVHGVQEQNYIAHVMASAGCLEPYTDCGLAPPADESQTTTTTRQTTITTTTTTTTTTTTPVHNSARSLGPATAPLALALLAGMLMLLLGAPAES

[12] = target: T4, Alkaline phosphatase, tissue-nonspecific isozyme (Homo sapiens, UniProt P05186); assay: TNAP enzyme inhibition by screening hits, dose response, selectivity assay for mouse IAP inhibitor project, biochemical, human TNAP, uHTS hits (AID 488906); assay type: functional
T4 sequence (P05186 whole entry): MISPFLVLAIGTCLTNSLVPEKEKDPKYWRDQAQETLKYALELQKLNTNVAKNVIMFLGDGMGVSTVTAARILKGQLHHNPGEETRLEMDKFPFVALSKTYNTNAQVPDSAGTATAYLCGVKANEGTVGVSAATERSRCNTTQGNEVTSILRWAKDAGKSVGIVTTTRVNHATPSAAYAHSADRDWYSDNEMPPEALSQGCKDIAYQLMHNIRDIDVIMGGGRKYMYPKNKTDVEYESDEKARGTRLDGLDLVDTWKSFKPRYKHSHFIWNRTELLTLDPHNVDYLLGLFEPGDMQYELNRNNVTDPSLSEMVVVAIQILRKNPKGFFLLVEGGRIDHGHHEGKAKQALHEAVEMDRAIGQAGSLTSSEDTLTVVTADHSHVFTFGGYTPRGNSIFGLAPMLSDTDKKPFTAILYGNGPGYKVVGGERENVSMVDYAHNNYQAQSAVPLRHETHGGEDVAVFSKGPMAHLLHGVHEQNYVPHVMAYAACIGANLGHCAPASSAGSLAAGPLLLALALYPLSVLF

[13] = target: T5, Intestinal-type alkaline phosphatase (Homo sapiens, UniProt P09923); assay: inhibition of human intestinal alkaline phosphatase – biochemical, dose response (AID 488876); assay type: functional
T5 sequence (P09923 whole entry): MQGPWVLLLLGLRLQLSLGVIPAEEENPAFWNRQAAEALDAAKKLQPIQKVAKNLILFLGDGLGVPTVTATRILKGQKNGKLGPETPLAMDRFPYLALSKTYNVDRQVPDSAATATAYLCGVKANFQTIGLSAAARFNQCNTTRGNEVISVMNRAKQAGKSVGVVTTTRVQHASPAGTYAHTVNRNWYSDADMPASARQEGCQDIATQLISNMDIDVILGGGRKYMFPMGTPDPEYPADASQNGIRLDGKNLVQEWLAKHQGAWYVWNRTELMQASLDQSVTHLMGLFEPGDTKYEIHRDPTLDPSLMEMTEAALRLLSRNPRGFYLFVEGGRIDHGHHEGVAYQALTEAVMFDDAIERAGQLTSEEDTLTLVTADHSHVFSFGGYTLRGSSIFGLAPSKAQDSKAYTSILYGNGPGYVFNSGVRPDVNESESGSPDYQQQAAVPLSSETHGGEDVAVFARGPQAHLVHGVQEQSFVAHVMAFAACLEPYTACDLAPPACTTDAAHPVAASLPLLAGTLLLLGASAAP

[14] = target: Large T antigen (Simian virus 40, UniProt P03070); assay type: functional, Betapolyomavirus macacae;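 further: Confirmatory-stage PubChem screen for compounds that inhibit SV40 T antigen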
Sequence of Large T antigen (P03070 whole entry): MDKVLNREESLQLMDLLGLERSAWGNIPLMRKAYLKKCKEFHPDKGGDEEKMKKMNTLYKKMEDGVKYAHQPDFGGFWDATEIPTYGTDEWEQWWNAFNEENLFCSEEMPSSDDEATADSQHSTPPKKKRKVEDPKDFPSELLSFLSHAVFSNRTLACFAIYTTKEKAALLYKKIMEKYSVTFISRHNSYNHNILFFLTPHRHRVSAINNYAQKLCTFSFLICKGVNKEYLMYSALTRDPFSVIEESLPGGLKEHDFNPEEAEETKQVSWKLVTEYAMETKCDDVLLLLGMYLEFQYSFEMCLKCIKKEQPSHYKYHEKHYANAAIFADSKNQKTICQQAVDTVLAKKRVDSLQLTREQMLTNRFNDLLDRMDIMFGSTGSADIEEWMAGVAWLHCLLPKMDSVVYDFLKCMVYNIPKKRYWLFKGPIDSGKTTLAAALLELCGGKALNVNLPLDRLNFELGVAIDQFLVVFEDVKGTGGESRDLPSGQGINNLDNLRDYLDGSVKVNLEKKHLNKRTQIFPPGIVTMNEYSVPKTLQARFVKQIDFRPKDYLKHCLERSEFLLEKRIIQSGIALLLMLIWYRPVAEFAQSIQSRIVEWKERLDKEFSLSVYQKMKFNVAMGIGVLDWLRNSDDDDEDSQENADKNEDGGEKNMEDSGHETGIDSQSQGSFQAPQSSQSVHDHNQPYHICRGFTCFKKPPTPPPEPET

[15] = target: T5, Intestinal-type alkaline phosphatase; assay: activation of human intestinal alkaline phosphatase – biochemical, dose response (AID 488873); assay type: functional
[16] = tested on: HEK293; assay: cells; settings: Homo sapiens
[17] = tested on: HEK293; assay: cells; settings: Homo sapiens; remark: listed apart in the source
[18] = target: Induced myeloid leukemia cell differentiation protein Mcl-1 (Homo sapiens, UniProt Q07820); assay type: functional
[19] = target: Delta-type opioid receptor (Homo sapiens, UniProt P41143); assay: Counterscreen for agonists of heterodimerization of the mu 1 (OPRM1) and delta 1 (OPRD1) opioid receptors: Luminescence-based cell-based high throughput dose response assay to identify agonists of OPRD1 homodimerization. [Related pubchem assays (depositor defined):AID504326, AID504355, AID504692, AID504904, AID504905]; assay type: functional
Sequence of Delta-type opioid receptor (P41143 whole entry): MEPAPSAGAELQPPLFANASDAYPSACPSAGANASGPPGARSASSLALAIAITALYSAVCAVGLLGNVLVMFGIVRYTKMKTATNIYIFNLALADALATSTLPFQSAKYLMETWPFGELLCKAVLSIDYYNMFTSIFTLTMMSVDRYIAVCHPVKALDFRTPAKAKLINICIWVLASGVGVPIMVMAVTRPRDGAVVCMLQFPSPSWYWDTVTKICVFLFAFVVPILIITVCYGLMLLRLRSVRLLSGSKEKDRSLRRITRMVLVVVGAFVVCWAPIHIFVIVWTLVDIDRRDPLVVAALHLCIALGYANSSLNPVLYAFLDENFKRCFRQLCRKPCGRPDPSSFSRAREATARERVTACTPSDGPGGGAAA

[20] = target: Mu-type opioid receptor (Homo sapiens, UniProt P35372); assay: Counterscreen for agonists of heterodimerization of the mu 1 (OPRM1) and delta 1 (OPRD1) opioid receptors: Luminescence-based cell-based high throughput dose response assay to identify agonists of OPRM1 homodimerization.; assay type: functional;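 further: U2OS cells expressing OPRM1 and beta-arrestin as split beta-galactosidase partners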
Sequence of Mu-type opioid receptor (P35372 whole entry): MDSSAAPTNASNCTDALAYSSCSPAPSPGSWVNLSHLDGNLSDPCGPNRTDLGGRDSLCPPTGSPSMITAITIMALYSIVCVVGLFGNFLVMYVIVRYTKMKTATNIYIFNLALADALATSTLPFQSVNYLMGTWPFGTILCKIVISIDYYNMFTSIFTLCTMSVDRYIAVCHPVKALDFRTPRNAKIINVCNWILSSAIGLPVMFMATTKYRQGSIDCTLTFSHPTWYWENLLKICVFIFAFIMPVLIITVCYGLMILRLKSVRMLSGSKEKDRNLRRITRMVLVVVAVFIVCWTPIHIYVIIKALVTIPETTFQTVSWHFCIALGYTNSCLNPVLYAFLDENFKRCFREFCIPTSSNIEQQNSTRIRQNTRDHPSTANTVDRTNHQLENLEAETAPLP

[21] = target: 5-hydroxytryptamine receptor 5A (Homo sapiens, UniProt P47898); assay: Counterscreen for agonists of OPRM1-OPRD1 heterodimerization: luminescence-based cell-based high throughput dose response assay to identify agonists of 5-hydroxytryptamine (serotonin) 5A receptor (HTR5A). [Related pubchem assays (depositor defined):AID504326, AID504355, AID504692, AID504904, AID504905]; assay type: functional
Sequence of 5-hydroxytryptamine receptor 5A (P47898 whole entry, the tested form may be a part): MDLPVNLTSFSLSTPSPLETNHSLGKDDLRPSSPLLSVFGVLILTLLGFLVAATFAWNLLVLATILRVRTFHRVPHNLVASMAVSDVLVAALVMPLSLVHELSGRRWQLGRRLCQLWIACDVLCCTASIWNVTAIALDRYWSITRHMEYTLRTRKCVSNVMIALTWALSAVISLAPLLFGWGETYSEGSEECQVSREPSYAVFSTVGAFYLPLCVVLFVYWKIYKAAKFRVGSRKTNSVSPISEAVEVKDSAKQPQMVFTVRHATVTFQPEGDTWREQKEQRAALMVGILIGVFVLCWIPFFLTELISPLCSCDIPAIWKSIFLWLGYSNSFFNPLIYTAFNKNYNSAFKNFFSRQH

[22] = target: T6, Carboxy-terminal domain RNA polymerase II polypeptide A small phosphatase 1 (Homo sapiens, UniProt Q9GZU7); assay: inhibitors of CTDSP1, concentration-response testing, biochemical assay, absorbance-based, actives from ultra-high-throughput screening (AID 540297); assay type: functional
T6 sequence (Q9GZU7 whole entry): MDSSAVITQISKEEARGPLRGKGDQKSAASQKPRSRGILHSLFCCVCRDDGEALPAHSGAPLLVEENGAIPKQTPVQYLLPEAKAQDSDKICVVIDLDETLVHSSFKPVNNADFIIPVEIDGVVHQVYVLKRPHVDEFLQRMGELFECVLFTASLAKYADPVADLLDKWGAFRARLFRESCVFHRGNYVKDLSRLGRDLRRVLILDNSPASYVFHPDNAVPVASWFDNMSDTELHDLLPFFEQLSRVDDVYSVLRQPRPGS

[23] = tested on: Streptococcus sp. 'group A'; assay: growth inhibition of control SK(-) GAS strain, dose response, counter-screen for streptokinase expression inhibitor project, luminescence, kanamycin, BacTiterGlo, confirmation (AID 1900); assay type: functional, organism-based
[24] = target: T7, Streptokinase A (Streptococcus pyogenes serotype M1, UniProt P10520); assay: S. pyogenes streptokinase expression inhibitors, potency, dose response, plasminogen activation absorbance, OD405 (AID 1914); assay type: functional, Streptococcus pyogenes M1 GAS;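 further: secreted streptokinase activity via plasminogen activation per viability signal from cell pellet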
T7 sequence (P10520 whole entry): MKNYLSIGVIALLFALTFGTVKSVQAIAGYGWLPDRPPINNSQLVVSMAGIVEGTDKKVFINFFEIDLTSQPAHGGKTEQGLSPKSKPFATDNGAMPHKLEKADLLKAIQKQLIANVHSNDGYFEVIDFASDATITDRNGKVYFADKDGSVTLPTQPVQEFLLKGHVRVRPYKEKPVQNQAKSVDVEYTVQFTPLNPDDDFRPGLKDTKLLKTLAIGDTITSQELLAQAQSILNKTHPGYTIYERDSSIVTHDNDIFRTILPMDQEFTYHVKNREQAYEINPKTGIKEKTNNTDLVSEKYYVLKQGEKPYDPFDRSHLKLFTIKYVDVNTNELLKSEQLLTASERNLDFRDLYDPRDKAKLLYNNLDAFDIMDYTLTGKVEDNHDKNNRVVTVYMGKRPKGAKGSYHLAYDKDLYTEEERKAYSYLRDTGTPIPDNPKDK

[25] = tested on: Streptococcus; assay: Group A Streptococcus viability loss, dose response, counter-screen for streptokinase expression inhibitor project, luminescence, BacTiterGlo (AID 1915); assay type: functional, organism-based;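 further: potency for reduction of bacterial viability or growth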
[26] = target: Cyclin-dependent kinase 5/CDK5 activator 1 (Homo sapiens, UniProt Q00535); assay: CDK5/p35 kinase inhibitors, dose response, biochemical, cherry-picked samples, set 2 (AID 504545)
Sequence of Cyclin-dependent kinase 5/CDK5 activator 1 (Q00535 whole entry): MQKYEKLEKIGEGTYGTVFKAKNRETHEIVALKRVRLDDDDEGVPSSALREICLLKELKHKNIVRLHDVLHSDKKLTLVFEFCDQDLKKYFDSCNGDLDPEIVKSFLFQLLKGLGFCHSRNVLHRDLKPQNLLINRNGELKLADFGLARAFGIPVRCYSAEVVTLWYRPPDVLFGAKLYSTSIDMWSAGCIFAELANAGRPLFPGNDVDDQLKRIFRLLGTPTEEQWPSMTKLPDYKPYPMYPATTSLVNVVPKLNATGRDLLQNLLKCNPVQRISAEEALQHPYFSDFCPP
Sequence of Cyclin-dependent kinase 5/CDK5 activator 1 (Q15078 whole entry, further chain): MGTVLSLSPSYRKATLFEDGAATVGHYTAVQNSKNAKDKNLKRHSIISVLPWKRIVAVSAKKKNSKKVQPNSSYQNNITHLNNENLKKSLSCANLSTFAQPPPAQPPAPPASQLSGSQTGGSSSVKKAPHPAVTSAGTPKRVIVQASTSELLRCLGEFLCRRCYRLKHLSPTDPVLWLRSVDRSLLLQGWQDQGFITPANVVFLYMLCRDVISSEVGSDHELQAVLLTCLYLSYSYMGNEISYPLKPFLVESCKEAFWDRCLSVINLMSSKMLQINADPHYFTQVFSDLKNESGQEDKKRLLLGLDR

[27] = HEp-2 cell cytotoxicity, dose response, cytotoxicity control for RSV inhibitor project, HTS (AID 2410); assay type: functional; settings: human respiratory syncytial virus

Sequence of Beta-galactosidase (Q8VNN2 whole entry): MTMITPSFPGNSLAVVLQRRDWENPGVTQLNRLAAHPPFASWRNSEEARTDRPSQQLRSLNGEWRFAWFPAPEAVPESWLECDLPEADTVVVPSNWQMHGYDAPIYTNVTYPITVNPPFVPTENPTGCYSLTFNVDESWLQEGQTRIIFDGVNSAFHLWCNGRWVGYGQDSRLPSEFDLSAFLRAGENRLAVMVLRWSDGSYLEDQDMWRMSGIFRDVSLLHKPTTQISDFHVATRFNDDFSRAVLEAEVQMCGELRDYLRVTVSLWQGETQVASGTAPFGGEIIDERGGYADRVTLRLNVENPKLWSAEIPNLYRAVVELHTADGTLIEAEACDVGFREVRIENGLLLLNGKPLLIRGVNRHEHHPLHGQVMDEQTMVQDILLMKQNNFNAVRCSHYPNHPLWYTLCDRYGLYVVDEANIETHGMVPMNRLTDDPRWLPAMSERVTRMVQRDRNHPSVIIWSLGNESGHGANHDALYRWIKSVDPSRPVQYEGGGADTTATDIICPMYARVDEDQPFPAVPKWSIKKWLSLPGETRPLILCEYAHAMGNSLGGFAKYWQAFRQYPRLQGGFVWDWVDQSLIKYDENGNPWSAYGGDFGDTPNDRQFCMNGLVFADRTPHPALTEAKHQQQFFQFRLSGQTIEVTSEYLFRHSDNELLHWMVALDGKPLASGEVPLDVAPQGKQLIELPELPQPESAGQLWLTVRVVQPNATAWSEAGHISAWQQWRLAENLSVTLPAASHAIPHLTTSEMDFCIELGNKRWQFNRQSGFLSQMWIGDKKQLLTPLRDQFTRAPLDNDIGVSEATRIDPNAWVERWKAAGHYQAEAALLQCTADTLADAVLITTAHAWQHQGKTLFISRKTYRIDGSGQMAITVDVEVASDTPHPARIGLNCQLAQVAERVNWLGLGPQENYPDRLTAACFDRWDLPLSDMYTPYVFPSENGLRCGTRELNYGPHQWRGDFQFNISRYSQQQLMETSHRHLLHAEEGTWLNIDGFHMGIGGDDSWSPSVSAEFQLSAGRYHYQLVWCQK

Compound: COc1cc(/C=C2\SC(=S)N(N3CCOCC3)C2=O)ccc1O
- EC50 [1]: > 40 µM (inactive)
- IC50 [2]: > 40 µM (not active)

Compound: N#Cc1c(NC(=O)C2CC(c3ccccc3Cl)=NO2)sc2c1CCC2 (stereo not given)
- IC50 [3]: 4.36 µM (active)
- IC50 [4]: 3.48 µM (active)

Compound: CCOc1ccc(C2=CS/C(=C(\C#N)c3nnc4n3CCCCC4)N2CC)cc1
- IC50 [3]: 13 µM (active)
- IC50 [4]: 8.21 µM (active)

Compound: Fc1ccc(N/N=C/c2ccncc2)c(F)c1
- AC50 [5]: 43.7 µM (active)
- AC50 [6]: 102 µM (active)

Compound: CCCN(Cc1ccccc1)C(S)=Nc1ccc(SC(F)F)cc1
- IC50 [7]: 18.1 µM (not active)
- AC50 [8]: 41.9 µM (active)

Compound: O=C(Nc1cccc(-c2nn[nH]n2)c1)c1ccc(Cl)s1
- AC50 [9]: 1.44 µM (active)

Compound: Cc1ccc(C(=O)COC(=O)c2cnccn2)cc1[N+](=O)[O-]
- EC50 [1]: > 40 µM (inactive)
- IC50 [2]: 38.5 µM (not active)

Compound: O=C1OCC(CO)(CO)N=C1NNc1ccc(Cl)c(Cl)c1
- EC50 [1]: > 40 µM (inactive)
- IC50 [2]: 16.6 µM (active)
- AC50 [10]: 2.31 µM (active)

Compound: CCN(c1ccccc1)S(=O)(=O)c1ccc2[nH]c(=O)[nH]c2c1
- IC50 [11]: 3.89 µM (active)
- IC50 [12]: 24.9 µM (active)
- IC50 [13]: 33.8 µM (active)

Compound: O=c1oc2cc(O)ccc2s1 [TIOXOLONE]
- IC50 [14]: 19 µM (active)
- EC50 [15]: 8.33 µM (active)
- IC50 [11]: 2.59 µM (active)
- IC50 [12]: > 100 µM (inactive)
- EC50 [16]: > 59.6 µM (inactive)
- EC50 [17]: > 59.6 µM (inactive)

Compound: COc1cccc(C(=O)Nc2ccc3c(c2)C(=O)c2ccccc2C3=O)c1
- IC50 [18]: 1.82 µM (active)
- EC50 [19]: > 92.5 µM (inactive)
- EC50 [20]: > 92.5 µM (inactive)
- EC50 [21]: > 92.5 µM (inactive)
- IC50 [22]: 6.16 µM (active)

Compound: CCc1nn(CCCC(=O)NCc2ccccc2Br)c(=O)c2cc3occc3n12
- EC50 [23]: 1.12 µM (active)
- EC50 [24]: > 150 µM (not active)
- EC50 [25]: > 150 µM (not active)
- IC50 [3]: 16.8 µM (active)
- IC50 [4]: 20 µM (inactive)

Compound: COc1ccc2nc3c(cc2c1)c(NC(=O)c1cccs1)nn3CC(C)C
- AC50 [26]: 4.21 µM (active)
- AC50 [9]: 0.43 µM (active)

Compound: CC[C@@]12C(=O)N(c3cccc(Br)c3)C(=O)N1[C@H](c1ccc(Cl)cc1)[C@@H]1C(=O)N(C3CCCCC3)C(=O)[C@@H]12
- CC50 [27]: > 50 µM (active)
- EC50 [16]: > 59.6 µM (inactive)
- EC50 [17]: > 59.6 µM (inactive)

Compound: COc1ccc(NC(=O)/C(C#N)=C\C=C\c2ccco2)cc1
- AC50 [5]: 1.36 µM (active)
- AC50 [6]: 23.1 µM (active)

Compound: COC(=O)C1=CO[C@@H](C)[C@@H]2CN(CCc3c[nH]c4ccccc34)CC[C@H]12
- EC50 [19]: > 92.4 µM (inactive)
- EC50 [20]: > 92.4 µM (inactive)
- EC50 [21]: > 92.4 µM (inactive)
